The record followed here is paper PMC8618058, “A Phenylfurocoumarin Derivative Reverses ABCG2-Mediated Multidrug Resistance In Vitro and In Vivo” (International Journal of Molecular Sciences, 2021).

This experiment deals with T1, ABCG2 (Homo sapiens, UniProt Q9UNQ0).
T1 construct: total membranes of ABCG2-expressing High Five insect cells
T1 sequence (Q9UNQ0 1-655): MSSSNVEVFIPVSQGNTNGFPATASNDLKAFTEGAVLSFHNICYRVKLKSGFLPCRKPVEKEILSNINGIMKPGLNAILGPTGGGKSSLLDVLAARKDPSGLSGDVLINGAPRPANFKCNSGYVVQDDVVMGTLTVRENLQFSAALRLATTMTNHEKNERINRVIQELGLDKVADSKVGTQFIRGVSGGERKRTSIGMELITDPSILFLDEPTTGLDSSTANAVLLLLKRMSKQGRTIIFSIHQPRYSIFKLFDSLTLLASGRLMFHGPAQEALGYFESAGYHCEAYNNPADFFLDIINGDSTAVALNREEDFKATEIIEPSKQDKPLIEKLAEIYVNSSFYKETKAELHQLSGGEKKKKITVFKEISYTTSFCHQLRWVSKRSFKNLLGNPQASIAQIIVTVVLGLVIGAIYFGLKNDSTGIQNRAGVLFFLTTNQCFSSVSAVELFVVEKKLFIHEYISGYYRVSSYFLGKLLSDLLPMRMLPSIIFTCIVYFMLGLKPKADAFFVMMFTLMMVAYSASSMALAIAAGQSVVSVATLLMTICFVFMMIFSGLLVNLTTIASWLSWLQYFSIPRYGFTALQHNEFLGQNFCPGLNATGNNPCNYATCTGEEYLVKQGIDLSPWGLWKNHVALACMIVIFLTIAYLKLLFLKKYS
The experiment is described as follows: stimulation of vanadate-sensitive ATPase activity in ABCG2-expressing insect cell membranes; also PhA efflux inhibition in HCT-116/BCRP cells. The class given is biochemical.

SMILES strings stand for the structures.

Regarding `COc1ccc(-c2c3occc3c(OC[C@H]3OC3(C)C)c3ccc(=O)oc23)cc1OC` [PFC, (R)-9-(3,4-dimethoxyphenyl)-4-((3,3-dimethyloxiran-2-yl)methoxy)-7H-furo [3,2-g]chromen-7-one], the response was half-maximal at 3.8 ± 0.64 nM (EC50).
